Measured values taken from patent US10322999B2, “Oxindoles derivatives, preparation method thereof and pharmaceutical compositions for the prevention or treatment of cancer containing the same as an active ingredient” (RESEARCH & BUSINESS FOUNDATION SUNGKYUNKWAN UNIVERSITY, priority 2017, dated 2019).
Like-named read-outs stand apart in the source and are kept apart here.

Key:
[1] = test system: human ovarian cancer cell line (SKOV3); assay: MTT assay, growth inhibition of SKOV3 cells; format: cell-based
Experimental: (§1) To evaluate the anticancer activity of the oxindole derivatives produced and analyzed in examples 1 to 8, MTT assay was performed to confirm the growth inhibitory effect on cancer cells. More specifically, human prostate adenocarcinoma cell line (LNCaP), human breast cancer cell line (MCF-7), human ovarian cancer cell line (SKOV3), human lung cancer cell line […] and human renal adenocarcinoma cell line (786-O) were cultured in DMEM medium supplemented with 1% penicillin/streptomycin and 10% fetal bovine serum (All from Life Technologies, Grand Island, N.Y.). Cells were seeded in 96-well plates (3×10^3 cells/well) containing 100 μL of growth medium for 24 hours. After the medium was removed, 100 μL of each of the different analogues (dissolved in DMSO to 0.025% or less) was added to each well and cultured at 37° C. for 48 hours. After 48 hours of incubation, 100 μL of MTT reagent was added to each well. After incubation at 37° C. for 4 hours, the supernatant was aspirated, and the formazan crystals were dissolved in 100 μL of DMSO at 37° C. for 10 minutes with gentle stirring. Absorbance per well was measured at 540 nm using a VERSA max microplate reader (Molecular Devices Corp.). IC50 values were defined as compound concentrations that inhibited cell proliferation by 50% compared to cells treated with the highest amount of DMSO (0.025%) and were considered to be 100% viability.

[2] = test system: human lung cancer cell line (A459); assay: MTT assay, growth inhibition of A549 cells; format: cell-based; settings: for IC50: Homo sapiens
Experimental: as §1

[3] = test system: human renal adenocarcinoma cell line (786-O); assay: MTT assay, growth inhibition of 786-O cells; format: cell-based; settings: for IC50: Homo sapiens; for inhibitory activity in 786-O (in words): summary of Table 3, 786-O
Experimental: as §1

[4] = test system: human prostate adenocarcinoma cell line (LNCaP); assay: MTT assay, growth inhibition of LNCaP cells; format: cell-based; settings: for IC50: Homo sapiens, LNCaP; for inhibitory activity in LNCaP (in words): summary of Table 3, LNCaP
Experimental: as §1

[5] = test system: human breast cancer cell line (MCF-7); assay: MTT assay, growth inhibition of MCF-7 cells; format: cell-based
Experimental: as §1

all carcinomas = assay: MTT assay, summary over all five cancer cell lines; format: cell-based, human; settings: summary of Table 3, all five cell lines
Experimental: as §1

[6] = SK-OV-3, MTT, 48 hours incubation, SKOV3, read-out: SKOV3 (IC50)
[7] = MTT, 48 hours incubation, A549, read-out: A549 (IC50)
[8] = 786-0, MTT, 48 hours incubation, 786-O, read-out: 786-O (IC50)
[9] = MTT, 48 hours incubation, read-out: LNCaP (IC50)
[10] = MCF7, MTT, 48 hours incubation, MCF-7, read-out: MCF-7 (IC50)
[11] = SK-OV-3, 48 h, read-out: SKOV3 (IC50, μM)
[12] = 48 h, read-out: A549 (IC50, μM)
[13] = 786-0, 48 h, read-out: 786-O (IC50, μM)
[14] = 48 h, read-out: LNCaP (IC50, μM)
[15] = MCF7, 48 h, read-out: MCF-7 (IC50, μM)

Structure (SMILES)	IC50 [1, 6]	IC50 [2, 7]	IC50 [3, 8]	IC50 [4, 9]	IC50 [5, 10]	inhibitory activity against all carcinomas (in words) (all carcinomas)	inhibitory activity in 786-O (in words) [3]	inhibitory activity in LNCaP (in words) [4]	inhibitory activity in A549 (in words) ([2]; summary of Table 3, A549)	IC50 [1, 11]	IC50 [2, 12]	IC50 [3, 13]	IC50 [4, 14]	IC50 [5, 15]
CNC(=O)CC1C(=O)N(Nc2ccccc2C)c2c(C)cccc21 (stereo not shown) [3b, N-Methyl-2-(7-methyl-2-oxo-1-(o-tolylamino)indolin-3-yl)acetamide]	> 50 µM	> 50 µM	> 50 µM	> 50 µM	> 50 µM	–	–	–	–	–	–	–	–	–
CNC(=O)CC1C(=O)N(Nc2cccc(C)c2C)c2c1ccc(C)c2C (stereo not shown) [3c, 2-(1-((2,3-Dimethylphenyl)amino)-6,7-dimethyl-2-oxoindolin-3-yl)-N-methylacetamide]	> 50 µM	> 50 µM	40.9 µM	44.6 µM	> 50 µM	–	–	–	–	–	–	–	–	–
CNC(=O)CC1C(=O)N(Nc2cccc(F)c2C)c2c1ccc(F)c2C (stereo not shown) [3d, 2-(6-Fluoro-1-((3-fluoro-2-methylphenyl)amino)-7-methyl-2-oxoindolin-3-yl)-N-methylacetamide]	> 50 µM	> 50 µM	> 50 µM	> 50 µM	> 50 µM	–	–	–	–	–	–	–	–	–
CNC(=O)CC1C(=O)N(Nc2cccc(Cl)c2C)c2c1ccc(Cl)c2C (stereo not shown) [3e, 2-(6-Chloro-1-((3-chloro-2-methylphenyl)amino)-7-methyl-2-oxoindolin-3-yl)-N-methylacetamide]	21.3 µM	33.3 µM	14.7 µM	15.5 µM	20.5 µM	excellent	–	–	–	–	–	–	–	–
CNC(=O)CC1C(=O)N(Nc2cccc(Br)c2C)c2c1ccc(Br)c2C (stereo not shown) [3f, 2-(6-bromo-1-((3-bromo-2-methylphenyl)amino)-7-methyl-2-oxoindolin-3-yl)-N-methylacetamide]	16.9 µM	24 µM	13.3 µM	12.8 µM	14.8 µM	excellent	–	–	–	–	–	–	–	–
CNC(=O)CC1C(=O)N(Nc2ccc(C)cc2C)c2c(C)cc(C)cc21 (stereo not shown) [3g, 2-(1-((2,4-dimethylphenyl)amino)-5,7-dimethyl-2-oxoindolin-3-yl)-N-methylacetamide]	> 50 µM	> 50 µM	> 50 µM	> 50 µM	> 50 µM	–	–	–	–	–	–	–	–	–
CNC(=O)CC1C(=O)N(Nc2ccc(F)cc2C)c2c(C)cc(F)cc21 (stereo not shown) [3h, 2-(5-Fluoro-1-((4-fluoro-2-methylphenyl)amino)-7-methyl-2-oxoindolin-3-yl)-N-methylacetamide]	> 50 µM	> 50 µM	41.3 µM	42.9 µM	> 50 µM	–	–	–	–	–	–	–	–	–
CNC(=O)CC1C(=O)N(Nc2ccc(Cl)cc2C)c2c(C)cc(Cl)cc21 (stereo not shown) [3i, 2-(5-Chloro-1-((4-chloro-2-methylphenyl)amino)-7-methyl-2-oxoindolin-3-yl)-N-methylacetamide]	44.5 µM	> 50 µM	29.5 µM	30.2 µM	> 50 µM	–	excellent inhibitor activity	excellent inhibitor activity	–	–	–	–	–	–
CNC(=O)CC1C(=O)N(Nc2cc(Br)ccc2C)c2c(C)ccc(Br)c21 (stereo not shown) [3l, 2-(4-Bromo-1-((5-bromo-2-methylphenyl)amino)-7-methyl-2-oxoindolin-3-yl)-N-methylacetamide]	> 50 µM	> 50 µM	42.7 µM	42.4 µM	> 50 µM	–	–	–	–	–	–	–	–	–
CNC(=O)CC1C(=O)N(Nc2ccccc2)c2ccccc21 (stereo not shown) [3m, N-methyl-2-(2-oxo-1-(phenylamino)indolin-3-yl)acetamide]	> 50 µM	> 50 µM	> 50 µM	> 50 µM	> 50 µM	–	–	–	–	–	–	–	–	–
CNC(=O)CC1C(=O)N(Nc2ccc(C)cc2)c2ccc(C)cc21 (stereo not shown) [3n, N-Methyl-2-(5-methyl-2-oxo-1-(p-tolylamino)indolin-3-yl)acetamide]	> 50 µM	> 50 µM	> 50 µM	> 50 µM	> 50 µM	–	–	–	–	–	–	–	–	–
CCc1cccc(NN2C(=O)C(CC(=O)NC)c3ccc(CC)cc32)c1 (stereo not shown) [3o, 2-(6-Ethyl-1-((3-ethylphenyl)amino)-2-oxoindolin-3-yl)-N-methylacetamide]	> 50 µM	> 50 µM	> 50 µM	> 50 µM	> 50 µM	–	–	–	–	–	–	–	–	–
CCNC(=O)CC1C(=O)N(Nc2ccccc2CC)c2c(CC)cccc21 (stereo not shown) [4b, N-Ethyl-2-(7-ethyl-1-((2-ethylphenyl)amino)-2-oxoindolin-3-yl)acetamide]	> 50 µM	> 50 µM	> 50 µM	32.2 µM	> 50 µM	–	excellent activity	excellent activity	excellent activity	–	–	–	–	–
CCc1ccccc1NN1C(=O)C(CC(=O)NC2CCCCC2)c2cccc(CC)c21 (stereo not shown) [4d, N-Cyclohexyl-2-(7-ethyl-1-((2-ethylphenyl)amino)-2-oxoindolin-3-yl)acetamide]	> 50 µM	> 38.6 µM	33.1 µM	33 µM	40.4 µM	–	–	–	–	–	–	–	–	–
CCc1ccccc1NN1C(=O)C(CC(=O)NC(C)(C)C)c2cccc(CC)c21 (stereo not shown) [4e, N-(tert-butyl)-2-(7-ethyl-1-((2-ethylphenyl)amino)-2-oxoindolin-3-yl)acetamide]	> 50 µM	> 50 µM	36.6 µM	15.3 µM	> 50 µM	–	–	–	–	–	–	–	–	–
CCc1ccccc1NN1C(=O)C(CC(N)=O)c2cccc(CC)c21 (stereo not shown) [4f, 2-(7-Ethyl-1-((2-ethylphenyl)amino)-2-oxoindolin-3-yl)acetamide]	> 50 µM	> 50 µM	> 50 µM	> 50 µM	> 50 µM	–	–	–	–	–	–	–	–	–
CCOC(=O)NC(=O)CC1C(=O)N(Nc2ccccc2CC)c2c(CC)cccc21 (stereo not shown) [4h, Ethyl (2-(7-ethyl-1-((2-ethylphenyl)amino)-2-oxoindolin-3-yl)acetyl)carbamate]	–	–	–	–	–	–	–	–	–	> 50 µM	> 50 µM	> 50 µM	> 50 µM	> 50 µM
CCc1ccccc1NN1C(=O)C(CC(=O)NC(=O)OC)c2cccc(CC)c21 (stereo not shown) [4i, Methyl (2-(7-ethyl-1-((2-ethylphenyl)amino)-2-oxoindolin-3-yl)acetyl)carbamate]	> 50 µM	> 50 µM	32.6 µM	33.5 µM	> 50 µM	–	–	–	–	–	–	–	–	–
CCc1ccccc1NN1C(=O)C(CC(=O)N[C@@H](C)C(=O)OC)c2cccc(CC)c21 (stereo partly drawn) [4j, Methyl (2-(7-ethyl-1-((2-ethylphenyl)amino)-2-oxoindolin-3-yl)acetyl)-L-alaninate]	–	–	–	–	–	–	–	–	–	> 50 µM	> 50 µM	> 50 µM	> 50 µM	> 50 µM
CCc1ccccc1NN1C(=O)C(CC(=O)OC)c2cccc(CC)c21 (stereo not shown) [6a, Methyl 2-(7-ethyl-1-((2-ethylphenyl)amino)-2-oxoindolin-3-yl)acetate]	> 50 µM	> 50 µM	> 50 µM	> 50 µM	> 50 µM	–	–	–	–	–	–	–	–	–
CCc1ccccc1NN1C(=O)C(CC(=O)OC(C)C)c2cccc(CC)c21 (stereo not shown) [6c, Isopropyl 2-(7-ethyl-1-((2-ethylphenyl)amino)-2-oxoindolin-3-yl)acetate]	> 50 µM	> 50 µM	30.5 µM	14.5 µM	45.5 µM	–	–	excellent activity	–	–	–	–	–	–
CCc1cccc2c1NC(=O)C2CC(=O)OC(C)C (stereo not shown) [8b, Isopropyl 2-(7-ethyl-2-oxoindolin-3-yl)acetate]	> 50 µM	> 50 µM	> 50 µM	> 50 µM	> 50 µM	–	–	–	–	–	–	–	–	–
